{"source": "patent US9770407B2", "about": "(Lundbeck Pharmaceuticals LLC, priority 2005, dated 2017)", "key": {"[1]": {"assay": "Subset analysis of subjects on extended release CBZ twice daily: predicted IV vs observed oral steady-state Cmax, Cmin, AUC", "assay_type": "in vivo, human", "conditions": "N=47; for AUC: human, plasma", "method": "A subset analysis of the subject data (n=47), including only those subjects taking extended release (ER) formulations of CBZ twice daily (as indicated by the product label), was performed to compare predicted maximum and minimum exposures of CBZ at steady-state administered via IV infusion to those observed following oral administration. CBZ concentration-time profiles following IV administration will differ from oral administration to the greatest extent for subjects on ER products, since these products provide formulation dependent control of the concentration-time profile. Subjects on extended release formulations experience the least fluctuation in concentrations and will maintain higher relative trough concentrations compared to any non-extended release product. Thus, the analysis in this subset gives a conservative assessment of potential differences in peak and trough exposures following IV administration. This analysis included calculations of predicted Cmax, Cmin, and AUCss values of CBZ for subjects predicted to be at steady-state on IV therapy."}, "[2]": {"conditions": "human, in vivo, po", "experimental": "Indwelling catheters were placed into the arms of test subjects. A single 100 mg dose of stable-labeled (non-radioactive) CBZ (SL-CBZ) was then infused over 10 minutes. At the end of the infusion, the subject's usual morning dose of oral CBZ, less 100 mg, was administered. Blood pressure, heart rate and rhythm, and infusion site discomfort were monitored during and for an hour after the infusion. […] Unbound CBZ was measured following ultrafiltration. CBZ concentration-time data were analyzed using a non-compartmental approach with the pharmacokinetic software, WinNONLIN.\nA validated LC-MS assay for SL-CBZ, CBZ and their respective epoxide metabolites was used. […] CBZ was assayed similar to that described by Osterloh and Bertilsson. […] After shaking and centrifugation, the organic layer was removed and evaporated under nitrogen gas to dryness. Each sample was then redissolved with the addition of 25 microliters of ethyl acetate. Plasma samples were measured for unbound and total CBZ, CBZ glucuronide and CBZ-E by LCMS. Unbound drug was separated from the bound fraction by ultrafiltration. The mobile phase consists of 50% 0.05 M ammonium acetate buffer, pH 4.7, 50% MeOH at a flow rate of 0.4 ml/min, on a reverse phase C-18 column."}, "[3]": {"conditions": "5th Percentile, observed, ER products twice daily"}, "[4]": {"conditions": "5th Percentile, predicted, IV every 6 hours"}, "[5]": {"conditions": "95th Percentile, observed, ER products twice daily"}, "[6]": {"conditions": "95th Percentile, predicted, IV every 6 hours"}, "[7]": {"conditions": "Maximum, observed, ER products twice daily"}, "[8]": {"conditions": "Maximum, predicted, IV every 6 hours"}, "[9]": {"conditions": "Median, observed, ER products twice daily"}, "[10]": {"conditions": "Median, predicted, IV every 6 hours"}, "[11]": {"conditions": "Minimum, observed, ER products twice daily"}, "[12]": {"conditions": "Minimum, predicted, IV every 6 hours"}}, "note": "Read-outs that look alike come from different tables or passages of the source."}
{"compound": "NC(=O)N1c2ccccc2C=Cc2ccccc21", "note": "[Carbamazepine, 5H-dibenz[b,f]azepine-5-carboxamide]", "values": [{"measurement": "Oral Cmaxss", "setting": "[1]; [3]", "result": 4980, "unit": "ng/mL"}, {"measurement": "Oral Cminss", "setting": "[1]; [3]", "result": 4320, "unit": "ng/mL"}, {"measurement": "IV CmaxSS (mean F = 0.7)", "setting": "[1]; [4]", "result": 4800, "unit": "ng/mL"}, {"measurement": "IV CminSS (mean F = 0.7)", "setting": "[1]; [4]", "result": 2480, "unit": "ng/mL"}, {"measurement": "Oral Cmaxss", "setting": "[1]; [5]", "result": 14600, "unit": "ng/mL"}, {"measurement": "Oral Cminss", "setting": "[1]; [5]", "result": 14550, "unit": "ng/mL"}, {"measurement": "IV CmaxSS (mean F = 0.7)", "setting": "[1]; [6]", "result": 24140, "unit": "ng/mL"}, {"measurement": "IV CminSS (mean F = 0.7)", "setting": "[1]; [6]", "result": 18640, "unit": "ng/mL"}, {"measurement": "Oral Cmaxss", "setting": "[1]; [7]", "result": 17100, "unit": "ng/mL"}, {"measurement": "Oral Cminss", "setting": "[1]; [7]", "result": 16690, "unit": "ng/mL"}, {"measurement": "IV CmaxSS (mean F = 0.7)", "setting": "[1]; [8]", "result": 47000, "unit": "ng/mL"}, {"measurement": "IV CminSS (mean F = 0.7)", "setting": "[1]; [8]", "result": 41040, "unit": "ng/mL"}, {"measurement": "IV CmaxSS (mean F = 0.7)", "setting": "[1]; Maximum, predicted, IV every 6 hours, listed as CBZ", "result": 47000, "unit": "ng/mL"}, {"measurement": "Oral Cmaxss", "setting": "[1]; Mean ± SD, observed, ER products (Carbatrol, Tegretol XR) twice daily, highest observed concentration, sparse sampling", "result": "9920 ± 2990", "unit": "ng/mL"}, {"measurement": "Oral Cminss", "setting": "[1]; Mean ± SD, observed, ER products twice daily", "result": "9320 ± 2930", "unit": "ng/mL"}, {"measurement": "IV CminSS (mean F = 0.7)", "setting": "[1]; Mean ± SD, predicted, IV every 6 hours", "result": "8630 ± 6850", "unit": "ng/mL"}, {"measurement": "IV CmaxSS (mean F = 0.7)", "setting": "[1]; Mean ± SD, predicted, scaled from 100 mg single IV dose over 10 minutes, every 6 hours", "result": "11750 ± 7900", "unit": "ng/mL"}, {"measurement": "IV CmaxSS (mean F = 0.7)", "setting": "[1]; Mean ± SD, predicted, scaled from 100 mg single IV dose over 10 minutes, every 6 hours, listed as CBZ", "result": 11750, "unit": "ng/mL"}, {"measurement": "Oral Cmaxss", "setting": "[1]; [9]", "result": 9810, "unit": "ng/mL"}, {"measurement": "Oral Cminss", "setting": "[1]; [9]", "result": 9440, "unit": "ng/mL"}, {"measurement": "IV CmaxSS (mean F = 0.7)", "setting": "[1]; [10]", "result": 9930, "unit": "ng/mL"}, {"measurement": "IV CminSS (mean F = 0.7)", "setting": "[1]; [10]", "result": 6500, "unit": "ng/mL"}, {"measurement": "Oral Cmaxss", "setting": "[1]; [11]", "result": 2890, "unit": "ng/mL"}, {"measurement": "Oral Cminss", "setting": "[1]; [11]", "result": 2890, "unit": "ng/mL"}, {"measurement": "IV CmaxSS (mean F = 0.7)", "setting": "[1]; [12]", "result": 3170, "unit": "ng/mL"}, {"measurement": "IV CminSS (mean F = 0.7)", "setting": "[1]; [12]", "result": 1650, "unit": "ng/mL"}, {"measurement": "AUC", "setting": "[1]; iv, 5th Percentile, predicted, IV every 6 hours, read-out: IV AUCSS (mean F = 0.7)", "result": 43100, "unit": "ng·h/mL"}, {"measurement": "AUC", "setting": "[1]; iv, 95th Percentile, predicted, IV every 6 hours, read-out: IV AUCSS (mean F = 0.7)", "result": 257000, "unit": "ng·h/mL"}, {"measurement": "AUC", "setting": "[1]; iv, Maximum, predicted, IV every 6 hours, read-out: IV AUCSS (mean F = 0.7)", "result": 551000, "unit": "ng·h/mL"}, {"measurement": "AUC", "setting": "[1]; iv, Mean ± SD, predicted, IV every 6 hours, read-out: IV AUCSS (mean F = 0.7)", "result": "122000 ± 90900", "unit": "ng·h/mL"}, {"measurement": "AUC", "setting": "[1]; iv, Median, predicted, IV every 6 hours, read-out: IV AUCSS (mean F = 0.7)", "result": 93700, "unit": "ng·h/mL"}, {"measurement": "AUC", "setting": "[1]; iv, Minimum, predicted, IV every 6 hours, read-out: IV AUCSS (mean F = 0.7)", "result": 26900, "unit": "ng·h/mL"}, {"measurement": "AUC", "setting": "[1]; po, 5th Percentile, observed, ER products, 12 hour dosing interval, read-out: Oral AUCss", "result": 50100, "unit": "ng·h/mL"}, {"measurement": "AUC", "setting": "[1]; po, 95th Percentile, observed, ER products, 12 hour dosing interval, read-out: Oral AUCss", "result": 146000, "unit": "ng·h/mL"}, {"measurement": "AUC", "setting": "[1]; po, Maximum, observed, ER products, 12 hour dosing interval, read-out: Oral AUCss", "result": 168000, "unit": "ng·h/mL"}, {"measurement": "AUC", "setting": "[1]; po, Mean ± SD, observed, ER products, 12 hour dosing interval, read-out: Oral AUCss", "result": "96800 ± 28100", "unit": "ng·h/mL"}, {"measurement": "AUC", "setting": "[1]; po, Median, observed, ER products, 12 hour dosing interval, read-out: Oral AUCss", "result": 96000, "unit": "ng·h/mL"}, {"measurement": "AUC", "setting": "[1]; po, Minimum, observed, ER products, 12 hour dosing interval, read-out: Oral AUCss", "result": 28500, "unit": "ng·h/mL"}, {"measurement": "calculated mean F value", "setting": "[2]", "result": 75, "unit": "%"}, {"measurement": "median F value", "setting": "[2]", "result": 67, "unit": "%"}]}
